Common to all, as to format: in vivo
Test [1] has as its system Ipomoea hederacea (IPOHE). Nature of the test: Herbicidal efficacy, post-emergence application (glasshouse). The note with it: evaluated visually after 13 days, 100=total damage, 0=no damage; for pest or weed control at 250 g/ha: Ipomoea hederacea, 312 h, read-out: percentage phytotoxicity to the plant, IPOHE. On the procedure: (§1) Seeds of a variety of test species [Ipomoea hederacea (IPOHE); Zea mays (ZEAMX); Echinochloa crus-galli (ECHCG); Setaria faberi (SETFA); Abutilon theophrasti (ABUTH); Amaranthus retroflexus (AMARE)] were sown in standard sterilised soil in pots. After cultivation for one day (pre-emergence) or after 8 days cultivation (post-emergence) under controlled conditions in a glasshouse (at 24/16° C., day/night; 14 hours light; 65% humidity), the plants were sprayed with an aqueous spray solution derived from the formulation of the technical active ingredient in acetone/water (50:50) solution containing 0.5% Tween 20 (polyoxyethelyene sorbitan monolaurate, CAS RN 9005-64-5), subsequently diluted in water, and sprayed to give the stated application rate.
(§2) The test plants were then grown under controlled conditions in a glasshouse (at 24/16° C., day/night; 14 hours light; 65% humidity) and watered twice daily.
(§3) After 13 days for pre and post-emergence, the test was evaluated visually for percentage phytotoxicity to the plant (where 100=total damage to plant; 0=no damage to plant).

The test system of test [2] is Setaria faberi (SETFA). The description is as above. The settings on record: evaluated visually after 13 days, 100=total damage, 0=no damage; for pest or weed control at 250 g/ha: Setaria faberi, 312 h, read-out: percentage phytotoxicity to the plant, SETFA. On the procedure: as §1, §2, §3
The test system of test [3] is Amaranthus retroflexus (AMARE). The description is as above. The settings on record: evaluated visually after 13 days, 100=total damage, 0=no damage; for pest or weed control at 250 g/ha: Amaranthus retroflexus, 312 h, read-out: percentage phytotoxicity to the plant, AMARE. On the procedure: as §1, §2, §3
The subject of test [4] is Echinochloa crus-galli (ECHCG). Described as above. The settings on record: evaluated visually after 13 days, 100=total damage, 0=no damage; for pest or weed control at 250 g/ha: Echinochloa crus-galli, 312 h, read-out: percentage phytotoxicity to the plant, ECHCG. On the procedure:
as §1, §2, §3

The test system of test [5] is Zea mays (ZEAMX). The test is described as above. The note with it: evaluated visually after 13 days, 100=total damage, 0=no damage; for plant injury at 250 g/ha: Zea mays, 312 h, read-out: percentage phytotoxicity to the plant, ZEAMX. On the procedure:
as §1, §2, §3

For test [6], the system named is Abutilon theophrasti (ABUTH). The description is as above. The settings on record: evaluated visually after 13 days, 100=total damage, 0=no damage; for pest or weed control at 250 g/ha: Abutilon theophrasti, 312 h, read-out: percentage phytotoxicity to the plant, ABUTH. On the procedure:
as §1, §2, §3

For test [7], the system named is Ipomoea hederacea (IPOHE). In words: Herbicidal efficacy, pre-emergence application (glasshouse). The note with it: evaluated visually after 13 days, 100=total damage, 0=no damage; for pest or weed control at 250 g/ha: Ipomoea hederacea, 312 h, read-out: percentage phytotoxicity to the plant, IPOHE. On the procedure:
as §1, §2, §3

For test [8], the system named is Setaria faberi (SETFA). The test is described as above. The settings on record: evaluated visually after 13 days, 100=total damage, 0=no damage; for pest or weed control at 250 g/ha: Setaria faberi, 312 h, read-out: percentage phytotoxicity to the plant, SETFA. On the procedure: as §1, §2, §3
Test [9] concerns Amaranthus retroflexus (AMARE). Described as above. The settings on record: evaluated visually after 13 days, 100=total damage, 0=no damage; for pest or weed control at 250 g/ha: Amaranthus retroflexus, 312 h, read-out: percentage phytotoxicity to the plant, AMARE. On the procedure:
as §1, §2, §3

Test [10] concerns Echinochloa crus-galli (ECHCG). Described as above. The settings on record: evaluated visually after 13 days, 100=total damage, 0=no damage; for pest or weed control at 250 g/ha: Echinochloa crus-galli, 312 h, read-out: percentage phytotoxicity to the plant, ECHCG. On the procedure: as §1, §2, §3
For test [11], the system named is Zea mays (ZEAMX). The test is described as above. The note with it: evaluated visually after 13 days, 100=total damage, 0=no damage; for plant injury at 250 g/ha: Zea mays, 312 h, read-out: percentage phytotoxicity to the plant, ZEAMX. On the procedure: as §1, §2, §3
The test system of test [12] is Abutilon theophrasti (ABUTH). The description is as above. The settings on record: evaluated visually after 13 days, 100=total damage, 0=no damage; for pest or weed control at 250 g/ha: Abutilon theophrasti, 312 h, read-out: percentage phytotoxicity to the plant, ABUTH. On the procedure: as §1, §2, §3

`CN1C[C@H](c2cc(C(F)(F)F)n(C)n2)[C@@H](C(=O)Nc2cccc(F)c2F)C1=O` [Compound 2.1, (3S,4R)-N-(2,3-difluorophenyl)-1-methyl-4-[1-methyl-5-(trifluoromethyl)pyrazol-3-yl]-2-oxo-pyrrolidine-3-carboxamide]: the pest or weed control at 250 g/ha in test [1] is 0%; in the test on Setaria faberi (SETFA) [2], 90%; in test [3] it was 20%; in test [4] it was 90%; in test [6], 0%; in test [7] it was 30%. The pest or weed control at 250 g/ha is 90% with Setaria faberi (SETFA) [8], 70% in test [9], 100% in test [10] and 10% in test [12]. For the same compound, the plant injury at 250 g/ha in the test on Zea mays (ZEAMX) [5] stood at 80%; in the test on Zea mays (ZEAMX) [11], 90%.
Regarding “(3S,4R)-N-[2-(1,1-difluoroethyl)-3-fluoro-phenyl]-1-methyl-4-[1-methyl-5-(trifluoromethyl)pyrazol-3-yl]-2-oxo-pyrrolidine-3-carboxamide [Compound 2.12]”, the “percentage phytotoxicity to the plant, IPOHE” value in test [1] (250 g/ha) is given as 50%; in [7] (250 g/ha) it was 70%. Besides, the “percentage phytotoxicity to the plant, SETFA” value in the test with Setaria faberi (SETFA) [2] (250 g/ha) and in the test on Setaria faberi (SETFA) [8] (250 g/ha) was 90% in each case. Further, the “percentage phytotoxicity to the plant, AMARE” value in [3] (250 g/ha) and in test [9] (250 g/ha) was 0% in each case. The “percentage phytotoxicity to the plant, ECHCG” value in [4] (250 g/ha) and in test [10] (250 g/ha) was 90% each time. The “percentage phytotoxicity to the plant, ZEAMX” value in the test on Zea mays (ZEAMX) [5] (250 g/ha) came out at 80%; with Zea mays (ZEAMX) [11] (250 g/ha) it was 90%. In addition, the “percentage phytotoxicity to the plant, ABUTH” value in test [6] (250 g/ha) and in [12] (250 g/ha) was 0% throughout.
As to `CN1C[C@H](c2cnn(C)c2C(F)(F)F)[C@@H](C(=O)Nc2cccc(F)c2F)C1=O` [Compound 2.15, (3S,4S)-N-(2,3-difluorophenyl)-1-methyl-4-[1-methyl-5-(trifluoromethyl)pyrazol-4-yl]-2-oxo-pyrrolidine-3-carboxamide], the pest or weed control at 250 g/ha came to 40% in [1]; 80% with Setaria faberi (SETFA) [2]; 0% in test [3]; 80% in [4]; 0% in test [6]; 20% in test [7]. Moreover, the pest or weed control at 250 g/ha in the test on Setaria faberi (SETFA) [8] stood at 100%; in [9], 0%; in [10], 100%; in test [12], 40%. Further, the results for the plant injury at 250 g/ha with Zea mays (ZEAMX) [5] and with Zea mays (ZEAMX) [11] were 30% and 40%, respectively.
For `CN1C[C@H](c2cc(C(F)(F)F)n(C)n2)[C@@H](C(=O)Nc2cccc(F)c2C(F)(F)F)C1=O` [Compound 2.5, (3S,4R)-N-[3-fluoro-2-(trifluoromethyl)phenyl]-1-methyl-4-[1-methyl-5-(trifluoromethyl)pyrazol-3-yl]-2-oxo-pyrrolidine-3-carboxamide], the pest or weed control at 250 g/ha in test [1] amounted to 0%; in the test on Setaria faberi (SETFA) [2] it was 80%; in test [3], 30%; in test [4], 80%; in [6], 0%; in [7], 10%. In addition, the pest or weed control at 250 g/ha in the test on Setaria faberi (SETFA) [8] was 90%; in [9], 0%; in test [10] it was 90%; in test [12] it was 0%. For the same compound, the plant injury at 250 g/ha is 10% in the test on Zea mays (ZEAMX) [5] and 20% with Zea mays (ZEAMX) [11].
On to `CCc1ccccc1NC(=O)[C@H]1C(=O)N(C)C[C@@H]1c1cc(C(F)(F)F)n(C)n1` [Compound 2.11, (3S,4R)-N-(2-ethylphenyl)-1-methyl-4-[1-methyl-5-(trifluoromethyl)pyrazol-3-yl]-2-oxo-pyrrolidine-3-carboxamide], for which the pest or weed control at 250 g/ha in [1] was determined as 0%; in the test with Setaria faberi (SETFA) [2], 80%; in test [3], 20%; in test [4], 80%; in [6] it was 0%; in test [7], 0%. Moreover, the pest or weed control at 250 g/ha in the test on Setaria faberi (SETFA) [8] turned out to be 90%; in [9], 70%; in test [10] it was 90%; in test [12], 0%. Besides, the plant injury at 250 g/ha worked out at 0% in the test with Zea mays (ZEAMX) [5] and 20% in the test with Zea mays (ZEAMX) [11].
Turning to `CN1C[C@H](c2cc(C(F)(F)F)n(C)n2)[C@@H](C(=O)Nc2ccccc2F)C1=O` [Compound 2.2, (3S,4R)-N-(2-fluorophenyl)-1-methyl-4-[1-methyl-5-(trifluoromethyl)pyrazol-3-yl]-2-oxo-pyrrolidine-3-carboxamide], the pest or weed control at 250 g/ha came to 0% in [1]; 90% in the test with Setaria faberi (SETFA) [2]; 0% in test [3]; 90% in test [4]; 0% in [6]; 0% in test [7]. Moreover, the pest or weed control at 250 g/ha in the test on Setaria faberi (SETFA) [8] worked out at 90%; in test [9], 20%; in test [10], 90%; in test [12], 0%. For the same compound, the plant injury at 250 g/ha stood at 50% with Zea mays (ZEAMX) [5] and 20% with Zea mays (ZEAMX) [11].
As to `CN1C[C@H](c2cc(C(F)(F)F)n(C)n2)[C@@H](C(=O)Nc2cccc(F)c2OC(F)F)C1=O` [Compound 2.10, (3S,4R)-N-[2-(difluoromethoxy)-3-fluoro-phenyl]-1-methyl-4-[1-methyl-5-(trifluoromethyl)pyrazol-3-yl]-2-oxo-pyrrolidine-3-carboxamide], the pest or weed control at 250 g/ha in test [1] turned out to be 30%; in the test on Setaria faberi (SETFA) [2] it was 80%; in [3], 0%; in [4] it was 80%; in [6], 0%; in test [7] it was 20%. Moreover, the pest or weed control at 250 g/ha in the test on Setaria faberi (SETFA) [8] turned out to be 90%; in [9], 0%; in test [10], 90%; in [12], 0%. Moreover, the plant injury at 250 g/ha was 80% in the test with Zea mays (ZEAMX) [5] and 40% in the test with Zea mays (ZEAMX) [11].
Consider `CN1C[C@H](c2cc(C(F)(F)F)n(C)n2)[C@@H](C(=O)Nc2ccc(F)c(F)c2F)C1=O` [Compound 2.7, (3S,4R)-1-methyl-4-[1-methyl-5-(trifluoromethyl)pyrazol-3-yl]-2-oxo-N-(2,3,4-trifluorophenyl)pyrrolidine-3-carboxamide], for which the pest or weed control at 250 g/ha in [1] stood at 0%; with Setaria faberi (SETFA) [2], 80%; in [3], 50%; in test [4], 80%; in test [6], 0%; in [7], 20%. Moreover, the pest or weed control at 250 g/ha with Setaria faberi (SETFA) [8] came out at 90%; in test [9], 20%; in test [10] it was 100%; in test [12], 10%. Further, the plant injury at 250 g/ha in the test on Zea mays (ZEAMX) [5] was 80%; in the test on Zea mays (ZEAMX) [11], 90%.
`CN1C[C@H](c2cc(C(F)(F)F)n(C)n2)[C@@H](C(=O)Nc2cccc(F)c2OC(F)(F)F)C1=O` [Compound 2.4, (3S,4R)-N-[3-fluoro-2-(trifluoromethoxy)phenyl]-1-methyl-4-[1-methyl-5-(trifluoromethyl)pyrazol-3-yl]-2-oxo-pyrrolidine-3-carboxamide]: the pest or weed control at 250 g/ha was determined as 0% in test [1]; 70% in the test on Setaria faberi (SETFA) [2]; 0% in test [3]; 70% in [4]; 0% in test [6]; 50% in [7]. Also, the pest or weed control at 250 g/ha was 90% with Setaria faberi (SETFA) [8], 0% in [9], 90% in test [10] and 0% in test [12]. For the same compound, the results for the plant injury at 250 g/ha in the test with Zea mays (ZEAMX) [5] and with Zea mays (ZEAMX) [11] were 0% and 30%, respectively.

These data come from patent US11472792B2, “Herbicidal mixtures” (SYNGENTA CROP PROTECTION AG, priority 2019, dated 2022).
